This note sets out measurements from US20240124431A1, “2,3-DIHYDRO-4H-BENZO[B][1,4]OXAZIN-4-YL)(5-(PHENYL)-PYRIDIN-3-YL)METHANONE DERIVATIVES AND SIMILAR COMPOUNDS AS CYP11A1 INHIBITORS FOR THE TREATMENT OF PROSTATE CANCER” (ORION CORPORATION, priority 2020, published 2024).

The target of this test is T1, CYP11A1 (Homo sapiens, UniProt P05108).
T1 construct: endogenous in cells; host or cells: NCI-H295R
T1 sequence (P05108 40-521): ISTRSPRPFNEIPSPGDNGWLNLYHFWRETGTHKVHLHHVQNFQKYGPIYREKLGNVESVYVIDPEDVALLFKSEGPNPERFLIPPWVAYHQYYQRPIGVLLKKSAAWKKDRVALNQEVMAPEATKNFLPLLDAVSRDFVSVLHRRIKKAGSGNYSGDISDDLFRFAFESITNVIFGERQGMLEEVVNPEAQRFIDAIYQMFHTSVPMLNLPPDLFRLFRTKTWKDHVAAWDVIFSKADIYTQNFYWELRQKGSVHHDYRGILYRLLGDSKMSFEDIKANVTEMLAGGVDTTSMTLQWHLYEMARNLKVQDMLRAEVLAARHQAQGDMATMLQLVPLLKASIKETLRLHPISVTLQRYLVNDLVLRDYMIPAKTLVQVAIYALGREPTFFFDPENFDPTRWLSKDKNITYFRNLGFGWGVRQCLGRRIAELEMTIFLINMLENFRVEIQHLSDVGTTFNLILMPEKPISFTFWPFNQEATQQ
The test can be described thus: CYP11A1 inhibition: pregnenolone biosynthesis measured by ELISA in NCI-H295R cells. It counts as cell-based. The note with it: NCI-H295R cells treated for 24 hours, 10 concentrations in duplicates, read-out: IC50 on CYP11A1 inhibition (Group). The protocol: The ability of the test compounds to inhibit pregnenolone biosynthesis was measured by enzyme-linked immunosorbent assay (ELISA) detecting pregnenolone (Abnova Pregnenolone ELISA Kit, KA1912). […] To determine the half maximal inhibitory concentration (IC50) of the test compounds on CYP11A1 inhibition, the cells were treated for 24 hours with increasing concentrations of the test compound. The final DMSO concentration was 0.4%. Medium samples were diluted 1:6 and pregnenolone amounts determined with ELISA. Manufacturer's recommended protocols were used and pregnenolone (Sigma-Aldrich, P9129) standards were prepared in cell culture medium. Absorbance (A450) was measured with Envision plate reader (PerkinElmer). All the test compounds were studied at 10 concentrations in duplicates.
On to `O=C(c1cncc(N2CCCC2)n1)N1CCOc2ccccc21` [Compound 76, (2,3-dihydro-4H-benzo[b][1,4]oxazin-4-yl)(6-(pyrrolidin-1-yl)pyrazin-2-yl)-methanone], for which the IC50 fell in the range of 201 to 2500 nM.

In the case of `O=C(c1cncc(N2CC(F)(F)C2)n1)N1CCOc2ccccc21` [Compound 77, (6-(3,3-Difluoroazetidin-1-yl)pyrazin-2-yl)(2,3-dihydro-4H-benzo[b][1,4]oxazin-4-yl)methanone], the IC50 fell in the range of 201 to 2500 nM.

Regarding `CN1CCN(c2cncc(C(=O)N3CCOc4ccccc43)n2)CC1` [Compound 78, (2,3-Dihydro-4H-benzo[b][1,4]oxazin-4-yl)(6-(4-methylpiperazin-1-yl)pyrazin-2-yl)methanone], the half-inhibitory concentration (IC50) is 201 to 2500 nM.

Take `O=C(Cc1cncc(-c2ccc(F)cc2)c1)N1CCCc2ccccc21` [Compound 79, 1-(3,4-Dihydroquinolin-1(2H)-yl)-2-(5-(4-fluorophenyl)pyridin-3-yl)ethan-1-one]: the half-inhibitory concentration (IC50) lay within 201 to 2500 nM.

Regarding `COc1ccc(-c2cncc(CC(=O)N3CCOc4ccccc43)c2)cc1` [Compound 80, 1-(2,3-Dihydro-4H-benzo[b][1,4]oxazin-4-yl)-2-(5-(4-methoxyphenyl)pyridin-3-yl)ethan-1-one], the IC50 was 201 to 2500 nM.

As for `c1ccc(-c2cncc(CN3CCOc4ccccc43)c2)cc1` [Compound 81, 4-((5-Phenylpyridin-3-yl)methyl)-3,4-dihydro-2H-benzo[b][1,4]oxazine], the IC50 lay in the range of 201 to 2500 nM.

As for `Cc1cn(-c2cncc(C(=O)N3CCCc4ccccc43)c2)cn1` [Compound 82, (3,4-Dihydroquinolin-1(2H)-yl)(5-(4-methyl-1H-imidazol-1-yl)pyridin-3-yl)-methanone], the IC50 fell in the range of 201 to 2500 nM.

As for `Cc1cn(-c2cncc(C(=O)N3CCCc4ccccc43)n2)cn1` [Compound 83, (3,4-Dihydroquinolin-1(2H)-yl)(6-(4-methyl-1H-imidazol-1-yl)pyrazin-2-yl)-methanone], the IC50 is below 50 nM.

In the case of `Cc1cnn(-c2cncc(C(=O)N3CCCc4ccccc43)n2)c1` [Compound 84, (3,4-Dihydroquinolin-1(2H)-yl)(6-(4-methyl-1H-pyrazol-1-yl)pyrazin-2-yl)-methanone], the IC50 is below 50 nM.

`O=C(c1cncc(Cc2ccccc2)n1)N1CCCc2ccccc21` [Compound 85, (6-Benzylpyrazin-2-yl)(3,4-dihydroquinolin-1(2H)-yl)methanone]: the 50% inhibitory concentration (IC50) lay within 201 to 2500 nM.

`O=C(Cc1cncc(-c2ccc(F)cc2)c1)N1CCOc2ccccc21` [Compound 86, 1-(2,3-Dihydro-4H-benzo[b][1,4]oxazin-4-yl)-2-(5-(4-fluorophenyl)pyridin-3-yl)ethan-1-one]: the IC50 lay in the range of 201 to 2500 nM.

On to `Cc1cc(C)n(-c2cncc(C(=O)N3CCCc4ccccc43)n2)n1` [Compound 87, (3,4-Dihydroquinolin-1(2H)-yl)(6-(3,5-dimethyl-1H-pyrazol-1-yl)pyrazin-2-yl)-methanone], for which the IC50 fell in the range of 51 to 200 nM.

On to `Cc1cnn(-c2cncc(C(=O)N3CCCc4ccccc43)c2)c1` [Compound 88, (3,4-Dihydroquinolin-1(2H)-yl)(5-(4-methyl-1H-pyrazol-1-yl)pyridin-3-yl)-methanone], for which the half-maximal inhibitory concentration (IC50) was below 50 nM.

In the case of `Fc1ccc(-c2cncc(CN3CCCc4ccccc43)c2)cc1` [Compound 89, 1-((5-(4-Fluorophenyl)pyridin-3-yl)methyl)-1,2,3,4-tetrahydroquinoline], the IC50 lay in the range of 51 to 200 nM.

For `Fc1ccc(-c2cncc(CN3CCc4ccccc43)c2)cc1` [Compound 90, 1-((5-(4-Fluorophenyl)pyridin-3-yl)methyl)indoline], the IC50 is 51 to 200 nM.

As to `Fc1ccc(-c2cncc(CN3CCOc4ccccc43)c2)cc1` [Compound 91], the IC50 fell in the range of 201 to 2500 nM.
